In patent US20180057507A1, “INHIBITORS OF DUAL LEUCINE ZIPPER (DLK) KINASE FOR THE TREATMENT OF DISEASE” (Board of Regents, The University of Texas System, priority 2016, published 2018) one finds Kd data, which are given here for 20 compounds.

The structures appear in SMILES notation.

The Kd is the equilibrium constant for the complex coming apart. A lower Kd goes with a tighter complex.

For this assay, the target named is T1, human DLK (Homo sapiens, UniProt Q12852).
T1 sequence (Q12852 1-859): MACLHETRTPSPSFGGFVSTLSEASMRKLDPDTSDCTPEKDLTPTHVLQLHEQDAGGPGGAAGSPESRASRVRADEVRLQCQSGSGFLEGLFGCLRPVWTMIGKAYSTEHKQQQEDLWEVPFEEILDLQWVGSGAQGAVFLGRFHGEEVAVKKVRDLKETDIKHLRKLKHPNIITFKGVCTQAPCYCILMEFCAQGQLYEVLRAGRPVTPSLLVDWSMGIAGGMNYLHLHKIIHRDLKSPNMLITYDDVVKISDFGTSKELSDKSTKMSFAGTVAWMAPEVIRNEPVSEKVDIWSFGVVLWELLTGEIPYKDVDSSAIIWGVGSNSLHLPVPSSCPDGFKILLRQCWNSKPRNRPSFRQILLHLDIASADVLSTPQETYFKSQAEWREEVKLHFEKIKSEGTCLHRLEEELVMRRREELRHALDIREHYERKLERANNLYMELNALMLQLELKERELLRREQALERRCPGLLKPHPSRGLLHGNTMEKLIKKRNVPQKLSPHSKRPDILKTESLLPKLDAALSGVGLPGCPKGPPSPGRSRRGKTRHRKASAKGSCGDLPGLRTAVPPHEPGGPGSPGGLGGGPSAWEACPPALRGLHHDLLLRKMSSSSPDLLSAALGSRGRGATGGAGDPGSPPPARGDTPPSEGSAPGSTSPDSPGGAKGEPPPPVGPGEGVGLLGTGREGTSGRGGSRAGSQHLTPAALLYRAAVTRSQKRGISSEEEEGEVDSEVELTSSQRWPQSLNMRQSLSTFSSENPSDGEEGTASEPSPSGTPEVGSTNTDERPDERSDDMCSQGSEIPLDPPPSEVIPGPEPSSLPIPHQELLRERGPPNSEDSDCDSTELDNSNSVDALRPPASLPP
The assay can be described thus: DLK Kd Determinations (KINOMEscan KdELECT, DiscoveRx). Details: full length of human DLK (amino acids 1-859); host or cells: transiently transfected HEK293 cells; unpurified extract. The note with it: fusion protein of full length human DLK (amino acids 1-859) and NFkB DNA binding domain; qPCR readout; duplicate. The protocol:
The DLK dissociation constants (Kd) have been determined in the KINOMEscan KdELECT Service at DiscoveRx.
A fusion protein of full length of human DLK (amino acids 1-859) and the DNA binding domain of NFkB was expressed in transiently transfected HEK293 cells. From these HEK 293 cells, extracts were prepared in M-PER extraction buffer (Pierce) in the presence of Protease Inhibitor Cocktail Complete (Roche) and Phosphatase Inhibitor Cocktail Set II (Merck) per manufacturers' instructions. The DLK fusion protein was labeled with a chimeric double-stranded DNA tag containing the NFkB binding site (5′-GGGAATTCCC-3′) fused to an amplicon for qPCR readout, which was added directly to the expression extract (the final concentration of DNA-tag in the binding reaction is 0.1 nM).
Streptavidin-coated magnetic beads (Dynal M280) were treated with a biotinylated small molecule ligand for 30 minutes at room temperature to generate affinity resins the binding assays. The liganded beads were blocked with excess biotin and washed with blocking buffer (SeaBlock (Pierce), 1% BSA, 0.05% Tween 20, 1 mM DTT) to remove unbound ligand and to reduce nonspecific binding.
Extracts were used directly in binding assays without any enzyme purification steps at a ≧10,000-fold overall stock dilution (final DNA-tagged enzyme concentration <0.1 nM). Extracts were loaded with DNA-tag and diluted into the binding reaction in a two step process. First extracts were diluted 1:100 in 1× binding buffer (PBS/0.05% Tween 20/10 mM DTT/0.1% BSA/2 μg/ml sonicated salmon sperm DNA) containing 10 nM DNA-tag. This dilution was allowed to equilibrate at room temperature for 15 minutes and then subsequently diluted 1:100 in 1× binding buffer. Test compounds were prepared as 111× stocks in 100% DMSO. Kds were determined using an 11-point 3-fold compound dilution series with three DMSO control points. All compounds for Kd measurements are distributed by acoustic transfer (non-contact dispensing) in 100% DMSO. The compounds were then diluted directly into the assays such that the final concentration of DMSO was 0.9%. All reactions performed in polypropylene 384-well plates. Each was a final volume of 0.02 mL. Assays were incubated with shaking for 1 hour at room temperature. Then the beads were pelleted and washed with wash buffer (1×PBS, 0.05% Tween 20) to remove displaced kinase and test compound. The washed based were re-suspended in elution buffer (1×PBS, 0.05% Tween 20, 0.5 μM non-biotinylated affinity ligand) and incubated at room temperature with shaking for 30 minutes. The kinase concentration in the eluates was measured by qPCR. qPCR reactions were assembled by adding 2.5 μL of kinase eluate to 7.5 μL of qPCR master mix containing 0.15 μM amplicon primers and 0.15 μM amplicon probe. The qPCR protocol consisted of a 10 minute hot start at 95° C., followed by 35 cycles of 95° C. for 15 seconds, 60° C. for 1 minute.
Test compounds were prepared as 111× stocks in 100% DMSO. Kds were determined using an 11-point 3-fold compound dilution series with three DMSO control points. All compounds for Kd measurements are distributed by acoustic transfer (non-contact dispensing) in 100% DMSO. The compounds were then diluted directly into the assays such that the final concentration of DMSO was 0.9%. The Kds were determined using a compound top concentration of 30,000 nM. Kd measurements were performed in duplicate.
Binding constants (Kds) were calculated with a standard dose-response curve using the Hill equation: […]
The Hill Slope was set to −1. Curves were fitted using a non-linear least square fit with the Levenberg-Marquardt algorithm (Levenberg, K., A method for the solution of certain non-linear problems in least squares, Q. Appl. Math. 2, 164-168 (1944)). See also Fabian, M. A. et al. A small molecule-kinase interaction map for clinical kinase inhibitors. Nat. Biotechnol. […]
On the technique in general: In qPCR the cycle at which signal appears reflects the starting amount.

`CC(C)c1nc(-c2cnc(N)c(C(F)(F)F)c2)cn1C1CCCC1` [Example 28, 5-(1-cyclopentyl-2-isopropyl-1H-imidazol-4-yl)-3-(trifluoromethyl)pyridin-2-amine] returned an equilibrium dissociation constant (Kd) of 220 nM.

As to `CC(C)c1nc(-c2cnc(N)c(C(F)(F)F)c2)cn1C1COC1` [Example 29, 5-(2-isopropyl-1-(oxetan-3-yl)-1H-imidazol-4-yl)-3-(trifluoromethyl)pyridin-2-amine], the equilibrium dissociation constant (Kd) was 1000 nM.

The compound `CC(C)c1nc(-c2cnc(N)c(C(F)(F)F)c2)cn1Cc1ccccn1` [Example 30, 5-(2-isopropyl-1-(pyridin-2-ylmethyl)-1H-imidazol-4-yl)-3-(trifluoromethyl)pyridin-2-amine] returned a Kd of 1500 nM.

Regarding `CC(C)c1nc(-c2cnc(N)c(C(F)(F)F)c2)cn1Cc1cccnc1` [Example 32, 5-(2-isopropyl-1-(pyridin-3-ylmethyl)-1H-imidazol-4-yl)-3-(trifluoromethyl)pyridin-2-amine], the Kd was 940 nM.

In turn, `CC(C)c1nc(-c2cnc(N)c(C(F)(F)F)c2)cn1C1CCC(O)CC1` (centres unmarked) [Example 33, 4-(4-(6-amino-5-(trifluoromethyl)pyridin-3-yl)-2-isopropyl-1H-imidazol-1-yl)cyclohexan-1-ol] showed a dissociation constant Kd of 130 nM.

Compound `CC(C)c1nc(-c2cnc(N)c(C(F)(F)F)c2)cn1CC1CCOCC1` [Example 34, 5-(2-isopropyl-1-((tetrahydro-2H-pyran-4-yl)methyl)-1H-imidazol-4-yl)-3-(trifluoromethyl)pyridin-2-amine] yielded a Kd of 870 nM.

The compound `CC(C)c1nc(-c2cnc(N)c(C(F)(F)F)c2)cn1CCC1CCOCC1` [Example 35, 5-(2-isopropyl-1-(2-(tetrahydro-2H-pyran-4-yl)ethyl)-1H-imidazol-4-yl)-3-(trifluoromethyl)pyridin-2-amine] yielded a Kd of 160 nM.

With `CC(C)c1nc(-c2cnc(N)c(C(F)(F)F)c2)cn1C1CCN(C2COC2)C1` (centres unmarked) [Example 36, 5-(2-isopropyl-1-(1-(oxetan-3-yl)pyrrolidin-3-yl)-1H-imidazol-4-yl)-3-(trifluoromethyl)pyridin-2-amine], the Kd was 350 nM.

As for `CC(C)c1nc(-c2cnc(N)c(C(F)(F)F)c2)cn1C1CC(N2CCOCC2)C1` (centres unmarked) [Example 37, 5-(2-isopropyl-1-(3-morpholinocyclobutyl)-1H-imidazol-4-yl)-3-(trifluoromethyl)pyridin-2-amine], the Kd came to 92 nM.

On to `Nc1ncc(-c2cn(C3CC3)c(CC(F)(F)F)n2)cc1C(F)(F)F` [Example 46, 5-(1-cyclopropyl-2-(2,2,2-trifluoroethyl)-1H-imidazol-4-yl)-3-(trifluoromethyl)pyridin-2-amine], for which the Kd came to 280 nM.

`Nc1ncc(-c2cn(C3CC3)c(CC3CC3)n2)cc1C(F)(F)F` [Example 47, 5-(1-cyclopropyl-2-(cyclopropylmethyl)-1H-imidazol-4-yl)-3-(trifluoromethyl)pyridin-2-amine] registered a Kd of 120 nM.

Consider `Nc1ncc(-c2cn3c(n2)C(C2CC2)OCC3)cc1C(F)(F)F` (centres unmarked) [Example 49, 5-(8-cyclopropyl-5,6-dihydro-8H-imidazo[2,1-c][1,4]oxazin-2-yl)-3-(trifluoromethyl)pyridin-2-amine], for which binding was characterised by a dissociation constant (Kd) of 1200 nM.

As to `CC(C)c1nc(-c2cnc(N)c(OC(F)F)c2)cn1[C@H]1[C@@H]2CNC[C@@H]21` [Example 50, 5-(1-((1R,5S,6s)-3-azabicyclo[3.1.0]hexan-6-yl)-2-isopropyl-1H-imidazol-4-yl)-3-(difluoromethoxy)pyridin-2-amine], the equilibrium dissociation constant (Kd) was determined as 170 nM.

As to `Nc1ncc(-c2cn([C@H]3[C@@H]4CN(C5COC5)C[C@@H]43)c(C3CCC3)n2)cc1C(F)(F)F` [Example 51, 5-(2-cyclobutyl-1-((1R,5S,6s)-3-(oxetan-3-yl)-3-azabicyclo[3.1.0]hexan-6-yl)-1H-imidazol-4-yl)-3-(trifluoromethyl)pyridin-2-amine], the dissociation constant (Kd) was determined as 130 nM.

In the case of `Nc1ncc(-c2cn([C@H]3[C@@H]4CN(C5COC5)C[C@@H]43)c(CC(F)(F)F)n2)cc1C(F)(F)F` [Example 52, 5-(1-((1R,5S,6s)-3-(oxetan-3-yl)-3-azabicyclo[3.1.0]hexan-6-yl)-2-(2,2,2-trifluoroethyl)-1H-imidazol-4-yl)-3-(trifluoromethyl)pyridin-2-amine], binding was put at a Kd of 100 nM.

`CC(=O)N1C[C@@H]2[C@H](C1)[C@H]2n1cc(-c2cnc(N)c(OC(F)(F)F)c2)nc1C1CC1` [Example 54, 1-((1R,5S)-6-(4-(6-amino-5-(trifluoromethoxy)pyridin-3-yl)-2-cyclopropyl-1H-imidazol-1-yl)-3-azabicyclo[3.1.0]hexan-3-yl)ethan-1-one] registered an equilibrium dissociation constant (Kd) of 110 nM.

`COCCN1C[C@@H]2[C@H](C1)[C@H]2n1cc(-c2cnc(N)c(OC(F)F)c2)nc1C(C)C` [Example 55, 3-(difluoromethoxy)-5-(2-isopropyl-1-((1R,5S,6s)-3-(2-methoxyethyl)-3-azabicyclo[3.1.0]hexan-6-yl)-1H-imidazol-4-yl)pyridin-2-amine] showed a dissociation constant Kd of 240 nM.

For the compound `Nc1ncc(-c2cn([C@H]3[C@@H]4CN(C5COC5)C[C@@H]43)c(C3CCC3)n2)cc1OC(F)(F)F` [Example 56, 5-(2-cyclobutyl-1-((1R,5S,6s)-3-(oxetan-3-yl)-3-azabicyclo[3.1.0]hexan-6-yl)-1H-imidazol-4-yl)-3-(trifluoromethoxy)pyridin-2-amine], the equilibrium dissociation constant (Kd) was determined as 280 nM.

`Nc1ncc(-c2cn([C@H]3[C@@H]4CN(C5COC5)C[C@@H]43)c(C3CCC3)n2)cc1OC(F)F` [Example 57, 5-(2-cyclobutyl-1-((1R,5S,6s)-3-(oxetan-3-yl)-3-azabicyclo[3.1.0]hexan-6-yl)-1H-imidazol-4-yl)-3-(difluoromethoxy)pyridin-2-amine] registered a Kd of 180 nM.

`CC(C)c1nc(-c2cnc(N)c(OC(F)(F)F)c2)cn1[C@H]1[C@@H]2CNC[C@@H]21` [Example 58, 5-(1-((1R,5S,6s)-3-azabicyclo[3.1.0]hexan-6-yl)-2-isopropyl-1H-imidazol-4-yl)-3-(trifluoromethoxy)pyridin-2-amine] yielded a Kd of 94 nM.
